The results in this text go back to patent US10668056B2, “Pharmaceutical composition comprising indole derivatives, process for preparation and use thereof” (VIVOLUX AB, priority 2015, dated 2020).

Like-named read-outs stand apart in the source and are kept apart here. Bounds are passed on as bounds.

For data set [1], the system named is various cell lines (CCRF-CEM, RPMI-8226, A2780, FaDu, HT29, MCF7, HL-60) and primary human tumor cell cultures. To be noted: FIG. 3. The procedure: (§1) Cells were seeded in the drug-prepared 384-well plates using the pipetting robot Precision 2000 (Bio-Tek Instruments Inc., Winooski, Vt.).
The test system of data set [2] is primary human tumor cell cultures, Gastric. To be noted: 9 patients analyzed, 72 h. Here is the method: as §1
Data set [3] relates to primary human tumor cell cultures, Mesothelioma. To be noted: 7 patients analyzed, 72 h. The procedure:
as §1

For data set [4], the system named is primary human tumor cell cultures, Pancreas. To be noted: 1 patient analyzed, 72 h. Here is the method: as §1
In data set [5] the test system is primary human tumor cell cultures, Renal. To be noted: 13 patients analyzed, 72 h. Here is the method:
as §1

Data set [6] deals with primary human tumor cell cultures, Appendix. To be noted: 4 patients analyzed, 72 h. Here is the method: as §1
In data set [7] the test system is primary human tumor cell cultures, Ovarian. To be noted: 30 patients analyzed, 72 h. The procedure: as §1
Data set [8] concerns primary human tumor cell cultures, Colorectal cancer. To be noted: 25 patients analyzed, 72 h. Here is the method:
as §1

The test system of data set [9] is primary human tumor cell cultures, PMP (Pseudomyxoma Peritonei). To be noted: 50 patients analyzed, 72 h. Here is the method:
as §1

The test system of data set [10] is primary human tumor cell cultures, Small bowel. To be noted: 1 patient analyzed, 72 h. Here is the method: as §1
The subject of data set [11] is HeLa (Cervix Adenocarcinoma). The data set is described as follows: FMCA cytotoxicity, HeLa. The data set is classed as cell-based, human. To be noted: 72 h. The procedure: (§2) The inventors also set out to characterize activity of the compounds A, B and C in cell lines representing cancer of different origin. The specific assays used and the conclusions from the mechanistic evaluation have previously been described in detail (Zhang et al. 2014). Compounds A, B and C (See FIG. 4) were evaluated for cytotoxicity expressed as survival index (SI) in six human tumor cell lines using the cell based fluorometric micro culture cytotoxicity assay (FMCA) as previously described in detail (Lindhagen et al, 2008). The method is based on measurement of fluorescent fluorescein, generated from hydrolysis of FDA by viable cells with intact plasma membrane. The fluorescence is proportional to the number of intact viable cells.
(§3) The cell lines were cultivated in the respective cell medium recommended by the provider. The medium was supplemented with 10% heat-inactivated fetal bovine serum, 2 mmol/L L-glutamine, 100 μg/mL streptomycin and 100 U/mL penicillin (all from Sigma-Aldrich). The cell line was cultured at 37° C. in a humidified atmosphere containing 5% CO2.
(§4) FMCA analysis in brief, 2500 cells per well were seeded into 384-well microplates and incubated over night before treatment with compounds. Compounds were added using acoustic liquid transfer (Echo 550, LabCyte). The plates were incubated at 37° C. for 72 h, and then washed and FDA was added to the wells followed by 50 min of incubation at 37° C. The fluorescence, which is proportional to the number of living cells in each well, was measured at 485/520 nm in a Fluoroskan instrument (Labsystems, GMI, Ramsey, Minn.). Cell survival is presented as Survival Index (SI), defined as the fluorescence value in the compound-treated wells analysed as percentage of the value in the control wells, with blank values subtracted. Quality criteria included a signal/blank ratio >10 and a coefficient of variation (CV) in control and blank wells <30%. Graph Pad Prism (San Diego, Calif., USA). All experiments were performed twice, and each concentration was evaluated in quadruplicates in each experiment. […]

Data set [12] concerns RKO (Colon carcinoma). The data set is described as follows: FMCA cytotoxicity, RKO. To be noted: 72 h. Type of data set: cell-based, human. The procedure:
as §2, §3, §4

The test system of data set [13] is CCRF-CEM (Acute lymphoblastic leukemia). The data set can be described thus: FMCA cytotoxicity, CCRF-CEM. To be noted: 72 h. Type of data set: cell-based, human. The procedure:
as §2, §3, §4

The subject of data set [14] is six human tumor cell lines. The data set can be described thus: FMCA cytotoxicity, six human tumor cell lines (overall). To be noted: Table 6 and FIG. 4. The data set is classed as cell-based. The procedure:
as §2, §3, §4

Data set [15] concerns HepG2 (Hepatocellular Carcinoma). The data set is described as follows: FMCA cytotoxicity, HepG2. Type of data set: cell-based, human. To be noted: 72 h. Here is the method:
as §2, §3, §4

Data set [16] relates to THP-1 (Acute Monocytic Leukemia). The data set can be described thus: FMCA cytotoxicity, THP-1. Type of data set: cell-based, human. To be noted: 72 h. The procedure:
as §2, §3, §4

In data set [17] the test system is HCT116 (Colon carcinoma). The data set is described as follows: FMCA cytotoxicity, HCT116. Type of data set: cell-based, human. To be noted: 72 h. The procedure: as §2, §3, §4
[18] abbreviates: same sample re-analysed after 2 days.

For `C/C(=N\Nc1nnc2c(n1)[nH]c1c(C)cccc12)c1ccccn1` [Compound A, 2-[(1E,Z)-1-(2-{6-methyl-5H-[1,2,4]triazino[5,6-b]indole-3-yl}hydrazine-1-ylidene)ethyl]-pyridine], the anti-cancer activity result in [1] is given as “broad anti-cancer activity”. Also, the IC50 in data set [2] came to 6.9 µM; in [3], 12 µM; in [4] it was 6 µM; in [5] it was 164 µM; in data set [6], 21 µM; in data set [7] it was 5.7 µM. The IC50 is 11 µM in data set [8]; 9.4 µM in [9]; 5.4 µM in data set [10]; about 20 µM in [11]; under 0.25 µM in [12]; under 0.25 µM in data set [13]. For the same compound, the IC50 is under 0.25 µM in data set [15], under 0.25 µM in data set [16] and about 1 µM in [17]. Besides, the “activity on cancer cell lines” value in data set [14] is “strong activity”. The same compound came in with a Z-isomer content under setting [18] of about 2% and a Z-isomer content (sample preparation in 0.1% TFA/H2O, first analysis) of about 7%. Moreover, under setting [18], the hydrolysis detected was about 1%.
